Here are results for 22 compounds from patent US11945811B2, “Potassium channel inhibitors” (ACESION PHARMA APS, priority 2021, dated 2024).

The target in this experiment is T1, human SK3 channel (hKCa2.3) (Homo sapiens, UniProt Q9UGI6).
T1 construct: expressed in transfected cells
As to the kind of experiment: Automated patch clamping (QPatch 16 HT whole-cell recordings). The experiment is classed as cell-based. The conditions noted are these: HEK-293 cells stably expressing hKCa2.3; currents measured at −80 mV; normalized to N-methyl bicuculline; read-out: IC50 in the Automated patch clamping assay (SK3 channel inhibition). Here is the method: Automated whole cell patch-clamp recordings were performed using a QPatch 16 HT system and single-hole Qplates (Sophion, Denmark) on HEK-293 cells stably expressing the human SK3 channel (hKCa2.3). Cells were cultured and prepared for experiments using normal cell culturing procedures. A total of 4-5 million cells were used per experiment. The Qpatch automatically generates giga sealing, whole-cell formation, compound application and recording of current. hKCa2.3 currents were recorded in symmetrical K^+ solutions. The intracellular/pipette solution contained 154 mM KCl, 10 mM HEPES and 10 mM EGTA. CaCl2 is added to give calculated free concentrations of Ca^2+ of 0.4 μM and MgCl2 is added to give a free concentration of 1 mM. In order to maintain a total [K^+] of 156 mM (corresponding to the concentration in the extracellular ringer) a fixed amount of KOH (15 mM) is added, thereafter pH is adjusted with HCl to pH=7.2. Expected osmolarity: 275 mOsm. Sucrose was added to a final osmolarity around 295 mosm. The extracellular solution consisted of (in mM): CaCl2 0.1, MgCl2 3, KCl 150, HEPES 10 and glucose 10, pH=7.4 adjusted with KOH. Osmolarity between 285-295 mosm. The cells were held at 0 mV and hKCa2.3 currents were elicited by a linear voltage ramp from −80 mV to +80 mV (200 ms in duration) applied every 5th second.
The compound application protocol consisted of 12 recording periods lasting 200 s: 1) Baseline recordings in extracellular solution; 2) Application of the positive control N-methyl bicuculline (100 μM), which is characterized by full efficacy, fast on- and off-rate; 3-4) Wash-out; 5-10) Increasing concentrations of test compound to establish an IC50 value; 11-12) Wash-out; 13) positive control with compound NS8593 (N-[(1R)-1,2,3,4-tetrahydro-1-naphthalenyl]-1H-benzimidazol-2-amine) (1 μM) or with N-methyl bicuculline (100 μM). Data were sampled at 10 kHz, 4th order Bessel filter, cut-off frequency 3 kHz. Currents were compensated for run-down. Potency was quantified as the concentration needed to inhibit half of the SK channel activity and reported as an IC50 value.
All effects of compounds of the present invention as tested were normalized to the observed inhibitory effect of N-methyl bicuculline. Currents were measured at −80 mV.
In general terms: In patch-clamp work, channel activity is measured electrically.
As usually defined, the IC50 is the concentration that inhibits the measured activity by half. On to `CC(CO)(Nc1nc2c(Cn3ccoc3=N)cccc2[nH]1)c1cccc(C(F)(F)F)c1` (single isomer, unassigned; (-)) [Example 18a, (−)-2-({4-[(2-imino-2,3-dihydro-1,3-oxazol-3-yl)methyl]-1H-1,3-benzodiazol-2-yl}amino)-2-[3-(trifluoromethyl)-phenyl]propan-1-ol], for which the IC50 was under 1000 nM.

Consider `Cc1coc(=N)n1Cc1cccc2[nH]c(NC(C)(CO)c3cccc(C(F)(F)F)c3)nc12` (single isomer, unassigned; (-)) [Example 23a, (−)-2-({4-[(2-imino-4-methyl-2,3-dihydro-1,3-oxazol-3-yl)methyl]-1H-1,3-benzodiazol-2-yl}amino)-2-[3-(trifluoromethyl)phenyl]propan-1-ol], for which the IC50 is under 1000 nM.

Consider `Cc1cn(Cc2cccc3[nH]c(NC(C)(CO)c4cccc(OC(F)(F)F)c4)nc23)c(=N)o1` (single isomer, unassigned; (-)) [Example 30a, (−)-2-({4-[(2-imino-5-methyl-2,3-dihydro-1,3-oxazol-3-yl)methyl]-1H-1,3-benzodiazol-2-yl}amino)-2-[3-(trifluoromethoxy)-phenyl]propan-1-ol], for which the IC50 is under 1000 nM.

`CC(CO)(Nc1nc2c(Cn3ccsc3=N)cccc2[nH]1)c1ccc(F)c(Cl)c1` (single isomer, unassigned; (-)) [Example 32a, (−)-2-(3-chloro-4-fluorophenyl)-2-({4-[(2-imino-2,3-dihydro-1,3-thiazol-3-yl)methyl]-1H-1,3-benzodiazol-2-yl}amino)propan-1-ol]: the half-maximal inhibitory concentration (IC50) is under 1000 nM.

As to `CC(CO)(Nc1nc2c(CNc3ncco3)cccc2[nH]1)c1ccc(Cl)c(F)c1` (single isomer, unassigned; (-)) [Example 40a, (−)-2-(4-chloro-3-fluorophenyl)-2-[(4-{[(1,3-oxazol-2-yl)amino]methyl}-1H-1,3-benzodiazol-2-yl)amino]propan-1-ol], the half-maximal inhibitory concentration (IC50) is under 30000 nM.

For `CC(CO)(Nc1nc2c(Cn3ccoc3=N)cccc2[nH]1)c1cccc(Cl)c1F` (single isomer, unassigned; (-)) [Example 41a, (−)-2-(3-chloro-2-fluorophenyl)-2-({4-[(2-imino-2,3-dihydro-1,3-oxazol-3-yl)methyl]-1H-1,3-benzodiazol-2-yl}amino)propan-1-ol], the half-inhibitory concentration (IC50) was under 1000 nM.

On to `CC(CO)(Nc1nc2c(CNc3ccon3)cccc2[nH]1)c1cc(F)cc(Cl)c1` (single isomer, unassigned; (-)) [Example 46a, (−)-2-(3-chloro-5-fluorophenyl)-2-[(4-{[(1,2-oxazol-3-yl)amino]methyl}-1H-1,3-benzodiazol-2-yl)amino]propan-1-ol], for which the IC50 is under 30000 nM.

Consider `N=c1occn1Cc1cccc2[nH]c(NC3(c4cccc(Cl)c4)CC3)nc12` [Example 1, N-[1-(3-chlorophenyl)cyclopropyl]-4-[(2-imino-2,3-dihydro-1,3-oxazol-3-yl)methyl]-1H-1,3-benzodiazol-2-amine], for which the IC50 is under 30000 nM.

On to `CC(C)(Nc1nc2c(Cn3ccoc3=N)cccc2[nH]1)c1cccc(Cl)c1` [Example 2, N-[2-(3-chlorophenyl)propan-2-yl]-4-[(2-imino-2,3-dihydro-1,3-oxazol-3-yl)methyl]-1H-1,3-benzodiazol-2-amine], for which the IC50 was under 1000 nM.

For `CC(CO)(Nc1nc2c(Cn3ccoc3=N)cccc2[nH]1)c1cccc(Cl)c1` (stereo not shown) [Example 3, 2-(3-chlorophenyl)-2-({4-[(2-imino-2,3-dihydro-1,3-oxazol-3-yl)methyl]-1H-1,3-benzodiazol-2-yl}amino)propan-1-ol], the IC50 is under 1000 nM.

Turning to `CC(Nc1nc2c(Cn3ccoc3=N)cccc2[nH]1)c1cccc(C(F)(F)F)c1` (stereo not shown) [Example 4, 4-[(2-imino-2,3-dihydro-1,3-oxazol-3-yl)methyl]-N-{1-[3-(trifluoromethyl)phenyl]ethyl}-1H-1,3-benzodiazol-2-amine], the half-inhibitory concentration (IC50) is under 1000 nM.

Take `Cc1coc(=N)n1Cc1cccc2[nH]c(NC(C)(CO)c3cccc(Cl)c3)nc12` (stereo not shown) [Example 5, 2-(3-chlorophenyl)-2-({4-[(2-imino-4-methyl-2,3-dihydro-1,3-oxazol-3-yl)methyl]-1H-1,3-benzodiazol-2-yl}amino)propan-1-ol]: the half-inhibitory concentration (IC50) was under 1000 nM.

As for `COCC(C)(Nc1nc2c(Cn3ccoc3=N)cccc2[nH]1)c1cccc(Cl)c1` (stereo not shown) [Example 6, N-[2-(3-chlorophenyl)-1-methoxypropan-2-yl]-4-[(2-imino-2,3-dihydro-1,3-oxazol-3-yl)methyl]-1H-1,3-benzodiazol-2-amine], the IC50 is under 30000 nM.

In the case of `CC(C)(Nc1nc2c(Cn3ccoc3=N)cccc2[nH]1)c1cccc(C(F)(F)F)c1` [Example 7, 4-[(2-imino-2,3-dihydro-1,3-oxazol-3-yl)methyl]-N-{2-[3-(trifluoromethyl)phenyl]propan-2-yl}-1H-1,3-benzodiazol-2-amine], the IC50 was under 1000 nM.

For `CC(CO)(Nc1nc2c(Cn3ccoc3=N)cccc2[nH]1)c1ccc(F)c(Cl)c1` (stereo not shown) [Example 8, 2-(3-chloro-4-fluorophenyl)-2-({4-[(2-imino-2,3-dihydro-1,3-oxazol-3-yl)methyl]-1H-1,3-benzodiazol-2-yl}amino)propan-1-ol], the IC50 was under 1000 nM.

As to `CC(CO)(Nc1nc2c(CNc3ccon3)cccc2[nH]1)c1ccc(F)c(Cl)c1` (stereo not shown) [Example 9, 2-(3-chloro-4-fluorophenyl)-2-[(4-{[(1,2-oxazol-3-yl)amino]methyl}-1H-1,3-benzodiazol-2-yl)amino]propan-1-ol], the 50% inhibitory concentration (IC50) was under 1000 nM.

Consider `COCC(C)(Nc1nc2c(Cn3c(C)coc3=N)cccc2[nH]1)c1cccc(Cl)c1` (stereo not shown) [Example 10, N-[2-(3-chlorophenyl)-1-methoxypropan-2-yl]-4-[(2-imino-4-methyl-2,3-dihydro-1,3-oxazol-3-yl)methyl]-1H-1,3-benzodiazol-2-amine], for which the IC50 was under 30000 nM.

With `CC(CO)(Nc1nc2c(CNc3ccncn3)cccc2[nH]1)c1ccc(F)c(Cl)c1` (stereo not shown) [Example 11, 2-(3-chloro-4-fluorophenyl)-2-[(4-{[(pyrimidin-4-yl)amino]methyl}-1H-1,3-benzodiazol-2-yl)amino]propan-1-ol], the concentration for half-maximal inhibition (IC50) is under 30000 nM.

Regarding `Cc1cc(NCc2cccc3[nH]c(NC(C)(CO)c4ccc(F)c(Cl)c4)nc23)no1` (stereo not shown) [Example 12, 2-(3-chloro-4-fluorophenyl)-2-[(4-{[(5-methyl-1,2-oxazol-3-yl)amino]methyl}-1H-1,3-benzodiazol-2-yl)amino]propan-1-ol], the 50% inhibitory concentration (IC50) was under 1000 nM.

As to `Cc1coc(=N)n1Cc1cccc2[nH]c(NC(C)(CO)c3ccc(F)c(Cl)c3)nc12` (stereo not shown) [Example 13, 2-(3-chloro-4-fluorophenyl)-2-({4-[(2-imino-4-methyl-2,3-dihydro-1,3-oxazol-3-yl)methyl]-1H-1,3-benzodiazol-2-yl}amino)propan-1-ol], the IC50 was under 1000 nM.

With `COCC(C)(Nc1nc2c(Cn3ccoc3=N)cccc2[nH]1)c1ccc(F)c(Cl)c1` (stereo not shown) [Example 14, N-[2-(3-chloro-4-fluorophenyl)-1-methoxypropan-2-yl]-4-[(2-imino-2,3-dihydro-1,3-oxazol-3-yl)methyl]-1H-1,3-benzodiazol-2-amine], the concentration for half-maximal inhibition (IC50) was under 30000 nM.

In the case of `Cc1nc(NCc2cccc3[nH]c(NC(C)(CO)c4ccc(F)c(Cl)c4)nc23)no1` (stereo not shown) [Example 15, 2-(3-chloro-4-fluorophenyl)-2-[(4-{[(5-methyl-1,2,4-oxadiazol-3-yl)amino]methyl}-1H-1,3-benzodiazol-2-yl)amino]propan-1-ol], the IC50 was under 30000 nM.
